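Exposure lasted 48 hours, with cells grown in 96-well plates and compounds tested at five concentrations. Here, GI50 denotes the concentration required for 50% inhibition of growth.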 Activity calls are given as the source filed them. No stated cut-off is given here; in the data, active = GI50 up to about 1.1 µM and inactive = higher.
Assays:
Assay in all cases: DTP human tumour cell line panel, 48 h
SNB-75 = test system: SNB-75
LOX IMVI = test system: LOX IMVI
NCI-H460 = test system: NCI-H460
MDA-MB-231 = test system: MDA-MB-231
IGROV-1 = test system: IGROV-1
ACHN = test system: ACHN
TK-10 = test system: TK-10
CAKI-1 = test system: CAKI-1
SF-539 = test system: SF-539
M14 = test system: M14
NCI/ADR-RES = test system: NCI/ADR-RES
786-0 = test system: 786-0
Hs-578T = test system: Hs-578T
EKVX = test system: EKVX
MOLT-4 = test system: MOLT-4
SNB-19 = test system: SNB-19
KM12 = test system: KM12
RPMI-8226 = test system: RPMI-8226
UACC-62 = test system: UACC-62
SW-620 = test system: SW-620
SF-295 = test system: SF-295
OVCAR-8 = test system: OVCAR-8
SF-268 = test system: SF-268
MCF7 = test system: MCF7
SK-MEL-28 = test system: SK-MEL-28
SK-OV-3 = test system: SK-OV-3
HCC 2998 = test system: HCC 2998
SK-MEL-2 = test system: SK-MEL-2
HOP-62 = test system: HOP-62
SR = test system: SR
PC-3 = test system: PC-3
A498 = test system: A498
U-251 = test system: U-251
COLO 205 = test system: COLO 205
SK-MEL-5 = test system: SK-MEL-5
HL-60 = test system: HL-60
RXF 393 = test system: RXF 393
CCRF-CEM = test system: CCRF-CEM
MDA-MB-435 = test system: MDA-MB-435
HOP-92 = test system: HOP-92
NCI-H226 = test system: NCI-H226
HCT-116 = test system: HCT-116
UACC-257 = test system: UACC-257
K562 = test system: K562
BT-549 = test system: BT-549
NCI-H23 = test system: NCI-H23
OVCAR-4 = test system: OVCAR-4
HCT-15 = test system: HCT-15
T47D = test system: T47D
HT-29 = test system: HT-29
NCI-H522 = test system: NCI-H522
OVCAR-5 = test system: OVCAR-5
MDA-N = test system: MDA-N
OVCAR-3 = test system: OVCAR-3
A549 = test system: A549
SN12C = test system: SN12C
Malme-3M = test system: Malme-3M
UO-31 = test system: UO-31
DU-145 = test system: DU-145

Structure (SMILES): CC1=NN(c2nc(N)nc(CSc3nc4n(c(=S)n3)CCN4)n2)C(C)(C)C1
- GI50 (SNB-75): 15.3 µM (inactive)
- GI50 (LOX IMVI): 43.6 µM (inactive)
- GI50 (NCI-H460): > 100 µM (inactive)
- GI50 (MDA-MB-231): 29.6 µM (inactive)
- GI50 (IGROV-1): 15.1 µM (inactive)
- GI50 (ACHN): 44.9 µM (inactive)
- GI50 (TK-10): 74.1 µM (inactive)
- GI50 (CAKI-1): 25.2 µM (inactive)
- GI50 (SF-539): 44.8 µM (inactive)
- GI50 (M14): 67.9 µM (inactive)
- GI50 (NCI/ADR-RES): 30.1 µM (inactive)
- GI50 (786-0): 93.5 µM (inactive)
- GI50 (Hs-578T): 15.6 µM (inactive)
- GI50 (EKVX): 27.4 µM (inactive)
- GI50 (MOLT-4): > 100 µM (inactive)
- GI50 (SNB-19): 37.9 µM (inactive)
- GI50 (KM12): > 100 µM (inactive)
- GI50 (RPMI-8226): > 100 µM (inactive)
- GI50 (UACC-62): 43.1 µM (inactive)
- GI50 (SW-620): > 100 µM (inactive)
- GI50 (SF-295): 22.9 µM (inactive)
- GI50 (OVCAR-8): 18.3 µM (inactive)
- GI50 (SF-268): 15.3 µM (inactive)
- GI50 (MCF7): 51.5 µM (inactive)
- GI50 (SK-MEL-28): > 100 µM (inactive)
- GI50 (SK-OV-3): 19.1 µM (inactive)
- GI50 (HCC 2998): > 100 µM (inactive)
- GI50 (SK-MEL-2): 16.8 µM (inactive)
- GI50 (HOP-62): 14 µM (inactive)
- GI50 (SR): > 100 µM (inactive)
- GI50 (PC-3): 30.1 µM (inactive)
- GI50 (A498): 39.7 µM (inactive)
- GI50 (U-251): 37.9 µM (inactive)
- GI50 (COLO 205): 38.5 µM (inactive)
- GI50 (SK-MEL-5): > 100 µM (inactive)
- GI50 (HL-60): > 100 µM (inactive)
- GI50 (RXF 393): 15.6 µM (inactive)
- GI50 (CCRF-CEM): > 100 µM (inactive)
- GI50 (MDA-MB-435): > 100 µM (inactive)
- GI50 (HOP-92): 18.6 µM (inactive)
- GI50 (NCI-H226): 15 µM (inactive)
- GI50 (HCT-116): > 100 µM (inactive)
- GI50 (UACC-257): > 100 µM (inactive)
- GI50 (K562): > 100 µM (inactive)
- GI50 (BT-549): > 100 µM (inactive)
- GI50 (NCI-H23): 47.5 µM (inactive)
- GI50 (OVCAR-4): > 100 µM (inactive)
- GI50 (HCT-15): 32 µM
- GI50 (T47D): 21.7 µM (inactive)
- GI50 (HT-29): > 100 µM (inactive)

Structure (SMILES): CCOC(=O)C(CC#Cc1ccc(C#CCC(NC(C)=O)C(=O)OCC)cc1)NC(C)=O (stereo unspecified)
- GI50 (SNB-75): > 100 µM (inactive)
- GI50 (LOX IMVI): > 100 µM (inactive)
- GI50 (NCI-H460): > 100 µM (inactive)
- GI50 (MDA-MB-231): > 100 µM (inactive)
- GI50 (IGROV-1): > 100 µM (inactive)
- GI50 (NCI-H522): > 100 µM (inactive)
- GI50 (ACHN): > 100 µM (inactive)
- GI50 (TK-10): > 100 µM (inactive)
- GI50 (CAKI-1): > 100 µM (inactive)
- GI50 (SF-539): > 100 µM (inactive)
- GI50 (M14): > 100 µM (inactive)
- GI50 (NCI/ADR-RES): > 100 µM (inactive)
- GI50 (786-0): > 100 µM (inactive)
- GI50 (Hs-578T): > 100 µM (inactive)
- GI50 (OVCAR-5): > 100 µM (inactive)
- GI50 (MDA-N): > 100 µM (inactive)
- GI50 (EKVX): > 100 µM (inactive)
- GI50 (MOLT-4): > 100 µM (inactive)
- GI50 (OVCAR-3): > 100 µM (inactive)
- GI50 (SNB-19): > 100 µM (inactive)
- GI50 (KM12): > 100 µM (inactive)
- GI50 (RPMI-8226): > 100 µM (inactive)
- GI50 (A549): > 100 µM (inactive)
- GI50 (SN12C): > 100 µM (inactive)
- GI50 (UACC-62): > 100 µM (inactive)
- GI50 (SW-620): > 100 µM (inactive)
- GI50 (SF-295): > 100 µM (inactive)
- GI50 (OVCAR-8): > 100 µM (inactive)
- GI50 (SF-268): > 100 µM (inactive)
- GI50 (MCF7): > 100 µM (inactive)
- GI50 (SK-MEL-28): > 100 µM (inactive)
- GI50 (SK-OV-3): > 100 µM (inactive)
- GI50 (HCC 2998): > 100 µM (inactive)
- GI50 (SK-MEL-2): > 100 µM (inactive)
- GI50 (HOP-62): > 100 µM (inactive)
- GI50 (SR): > 100 µM (inactive)
- GI50 (PC-3): > 100 µM (inactive)
- GI50 (A498): > 100 µM (inactive)
- GI50 (COLO 205): > 100 µM (inactive)
- GI50 (SK-MEL-5): > 100 µM (inactive)
- GI50 (HL-60): > 100 µM (inactive)
- GI50 (Malme-3M): > 100 µM (inactive)
- GI50 (RXF 393): > 100 µM (inactive)
- GI50 (UO-31): > 100 µM (inactive)
- GI50 (CCRF-CEM): > 100 µM (inactive)
- GI50 (MDA-MB-435): > 100 µM (inactive)
- GI50 (DU-145): > 100 µM (inactive)
- GI50 (NCI-H226): > 100 µM (inactive)
- GI50 (HCT-116): > 100 µM (inactive)
- GI50 (UACC-257): > 100 µM (inactive)
- GI50 (K562): > 100 µM (inactive)
- GI50 (NCI-H23): > 100 µM (inactive)
- GI50 (OVCAR-4): > 100 µM (inactive)
- GI50 (HCT-15): > 100 µM
- GI50 (T47D): > 100 µM (inactive)
- GI50 (HT-29): > 100 µM (inactive)
